{"source": "patent US9388449B2", "about": "“Monitoring protein trafficking using beta-galactosidase reporter fragment complementation” (DiscoveRx Corporation, priority 2011, dated 2016)", "key": {"ADRB2 W158A": {"tested_on": "ADRB2 W158A", "assay": "Arrestin activity assay", "type": "cell-based", "conditions": "compound 10 μM; signal of test well divided by signal of buffer-only control wells", "experimental": "(§1) The cells were lysed and the complemented activity was measured using a chemiluminescent b-galactosidase substrate. The values of each well containing a test compound was divided by the signal obtained from the control wells that received only buffer."}, "ADRB2 W158A mutant": {"target": "T1, ADRB2 W158A mutant (Homo sapiens, UniProt P07550, W158A)", "T1 construct": "expressed in transfected cells", "assay": "Trafficking assay: β-galactosidase enzyme fragment complementation, ADRB2 W158A-ProLink with endosome-localized EA", "type": "cell-based", "conditions": "compound 10 μM; signal of test well divided by signal of buffer-only control wells", "excerpt": "The ADRB2 is a G-protein coupled receptor containing seven transmembrane regions. It was been shown that mutation of W158 to alanine can cause retention of the protein in the endoplasmic reticulum. Contacting the receptor with small molecules that bind to ADRB2 results in enhanced movement of the protein to the plasma membrane and endosomal compartments.\nThe first fusion protein used comprises the target peptide (ADRB2W158A-PK) and the first fragment of complementation assay. This construct includes the W158 to alanine mutation. The second fusion protein used comprises endosome localized protein and the second fragment of complementation assay.\nas §1"}, "ADRB2": {"target": "ADRB2 (Homo sapiens, UniProt P07550)", "assay": "cAMP activity assay (Gs ADRB2)", "type": "cell-based", "conditions": "compound 10 μM; signal of test well divided by signal of buffer-only control wells", "experimental": "as §1"}, "[1]": {"target": "KCNH2 (hERG) mutant, Kv11.1 potassium ion channel (Homo sapiens, UniProt Q12809, form not given)", "assay": "in vitro"}, "[2]": {"target": "KCNH2 (hERG) mutant, Kv11.1 potassium ion channel (Homo sapiens, UniProt Q12809)", "conditions": "KCNH2 mutant-PK cells, overnight, FIG. 5 curve fit", "method": "A single-point mutation is introduced in KCNH2. The second fusion protein used comprises plasma membrane localized protein and the second fragment of complementation assay. The second fragment of complementation assay was localized to the plasma membrane by fusing it to PH domain of phospholipase C gamma.\nIn this experiment, cells expressing the KCNH2 mutant fused to the first fragment of complementation assay (ProLink™ peptide) and the plasma membrane localized EA were treated with a variety of compounds that bind to the ion channel.\nBinding of ligand leads to stabilization (“rescue”) and transport of the protein to the membrane.—PLC(PH)-EA anchors to the membrane. […] The assay is run overnight."}, "[3]": {"target": "T2, AVPR2 (Arginine vasopressin receptor 2) (Homo sapiens, UniProt P30518)", "T2 construct": "expressed in transfected cells", "assay": "Trafficking of AVPR2 target peptide by complementation", "type": "cell-based", "excerpt": "(§2) In a model of retinitis, the rhodopsin GPCR was tagged with an ED, and its translocation was studied in response to addition of 9-cis retinol. […] Also, AVPR2 (Arginine vasopressin receptor 2), a GPCR for which antagonists are used therapeutically, was studied with SR49059, a small molecule vasopressin V1a receptor antagonist. […] More than 200 mutations in the AVPR2 gene have been identified in people with nephrogenic diabetes insipidus. Most of these mutations cause the vasopressin V2 receptor protein to be misfolded into an incorrect 3-dimensional shape. Thus the present assay finds particular applicability in identifying compounds that bind to the AVPR2 gene product in the case of a misfolding mutation which occurs in humans."}, "rhodopsin GPCR": {"tested_on": "rhodopsin GPCR", "assay": "Translocation of ED-tagged rhodopsin GPCR by complementation (model of retinitis)", "type": "cell-based", "excerpt": "as §2"}}, "note": "pEC50: −log10 of the molar value. Where a name gives a salt, the structure may show the parent alone.", "data": [{"smiles": "COc1ccccc1N1CCN(CC(O)COc2cccc3ccccc23)CC1.Cl.Cl", "note": "(stereo not drawn) [Naftopidil 2HCl]", "values": [{"measurement": "Arrestin W158A S/B", "setting": "ADRB2 W158A", "value": 1.0}, {"measurement": "Trafficking 5-EA ADRB2 S/B", "setting": "ADRB2 W158A mutant", "value": 6.8}, {"measurement": "cAMP Gs ADRB2 S/B", "setting": "ADRB2", "value": 1.0}]}, {"smiles": "CCC(NC(C)C)C(O)c1ccc(O)c2[nH]c(=O)ccc12", "note": "(stereo not drawn) [Procaterol HCl]", "values": [{"measurement": "Arrestin W158A S/B", "setting": "ADRB2 W158A", "value": 21.3}, {"measurement": "Trafficking 5-EA ADRB2 S/B", "setting": "ADRB2 W158A mutant", "value": 78.2}, {"measurement": "cAMP Gs ADRB2 S/B", "setting": "ADRB2", "value": 15.2}]}, {"smiles": "O=C(CCCN1CCC(O)(c2ccc(Cl)cc2)CC1)c1ccc(F)cc1", "note": "[Haloperidol]", "values": [{"measurement": "pEC50", "setting": "[1]", "value": 1.82}, {"measurement": "BOTTOM", "setting": "[2]", "value": 7500}, {"measurement": "HILLSLOPE", "setting": "[2]", "value": 0.5120}, {"measurement": "LOGEC50", "setting": "[2]", "value": "−1.815"}, {"measurement": "TOP", "setting": "[2]", "value": 537564}]}, {"smiles": "COc1ccc(S(=O)(=O)N2c3ccc(Cl)cc3[C@](O)(c3ccccc3Cl)[C@@H]2C(=O)N2CCC[C@H]2C(N)=O)cc1OC", "note": "[SR49059]", "values": [{"measurement": "dose response of AVPR2 trafficking to compound (result in words)", "setting": "[3]", "value": "dose response curve was obtained"}]}, {"smiles": "CC(C)(C)NC[C@H](O)COc1nsnc1N1CCOCC1.O=C(O)/C=C\\C(=O)O", "note": "[(S)-Timolol maleate]", "values": [{"measurement": "Arrestin W158A S/B", "setting": "ADRB2 W158A", "value": 0.9}]}, {"smiles": "CC(C)(C)NCC(O)COc1cccc2[nH]c(C#N)cc12.CC(C)(C)NCC(O)COc1cccc2[nH]c(C#N)cc12.O=C(O)/C=C/C(=O)O", "note": "(stereo not drawn) [(—)-Cyanopindolol hemifumarate]", "values": [{"measurement": "Arrestin W158A S/B", "setting": "ADRB2 W158A", "value": 1.0}, {"measurement": "Trafficking 5-EA ADRB2 S/B", "setting": "ADRB2 W158A mutant", "value": 17.1}, {"measurement": "cAMP Gs ADRB2 S/B", "setting": "ADRB2", "value": 1.8}]}, {"smiles": "CC1=C(/C=C/C(C)=C\\C=C\\C(C)=C\\CO)C(C)(C)CCC1", "note": "[9-cis retinol]", "values": [{"measurement": "translocation of ED-tagged rhodopsin in response to compound (result in words)", "setting": "rhodopsin GPCR", "value": "dose-response curve showed sensitive results"}]}, {"smiles": "CC(C)NCC(O)COc1cccc2ccccc12", "note": "(stereo not drawn) [Propanolol HCl]", "values": [{"measurement": "Arrestin W158A S/B", "setting": "ADRB2 W158A", "value": 0.9}]}]}
